In patent US10206394B2, “Herbicidal compounds” (Syngenta Participations AG, priority 2014, dated 2019):
Where two headings read alike, the source gives them in different places.

Columns and labels:
Assay in all cases: Glasshouse assay for herbicidal activity (pre- and post-emergence), percentage phytotoxicity
Format in all cases: in vivo
Avena fatua (AVEFA) = details: Avena fatua, rate 250 g/ha
In short: (§1)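 Sow seed in standard soil in pots; apply test herbicide after 1 day (PRE) or about 12 days (POST). Grow on in the glasshouse, watering twice daily, cool-season species at 20/16 °C and warm-season at 24/18 °C. Score visible damage (0–100%) at 20 or 15 DAA respectively.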

[1] = system: Alopecurus myosuroides (ALOMY); details: Alopecurus myosuroides, rate 250 g/ha
In short: as §1

[2] = system: Echinochloa crus-galli (ECHCG); details: Echinochloa crus-galli, rate 250 g/ha
In short: as §1

Lolium perenne (LOLPE) = details: Lolium perenne, rate 250 g/ha
In short: as §1

[3] = post-emergence, 360 h, POST-emergence, visual score 15 DAA (100%=total damage, 0%=no damage), read-out: Post-emergence herbicidal activity (percentage phytotoxicity) AVEFA POST
[4] = pre-emergence, 480 h, PRE-emergence, visual score 20 DAA (100%=total damage, 0%=no damage), read-out: Pre-emergence herbicidal activity (percentage phytotoxicity) AVEFA PRE
[5] = post-emergence, 360 h, POST-emergence, visual score 15 DAA (100%=total damage, 0%=no damage), read-out: Post-emergence herbicidal activity (percentage phytotoxicity) ALOMY POST
[6] = pre-emergence, 480 h, PRE-emergence, visual score 20 DAA (100%=total damage, 0%=no damage), read-out: Pre-emergence herbicidal activity (percentage phytotoxicity) ALOMY PRE
[7] = post-emergence, 360 h, POST-emergence, visual score 15 DAA (100%=total damage, 0%=no damage), read-out: Post-emergence herbicidal activity (percentage phytotoxicity) ECHCG POST
[8] = pre-emergence, 480 h, PRE-emergence, visual score 20 DAA (100%=total damage, 0%=no damage), read-out: Pre-emergence herbicidal activity (percentage phytotoxicity) ECHCG PRE
[9] = post-emergence, 360 h, POST-emergence, visual score 15 DAA (100%=total damage, 0%=no damage), read-out: Post-emergence herbicidal activity (percentage phytotoxicity) LOLPE POST
[10] = pre-emergence, 480 h, PRE-emergence, visual score 20 DAA (100%=total damage, 0%=no damage), read-out: Pre-emergence herbicidal activity (percentage phytotoxicity) LOLPE PRE

Structure (SMILES)	pest or weed control at 250 g/ha (Avena fatua (AVEFA); [3]) [%]	pest or weed control at 250 g/ha (Avena fatua (AVEFA); [4]) [%]	pest or weed control at 250 g/ha [1, 5] [%]	pest or weed control at 250 g/ha [1, 6] [%]	pest or weed control at 250 g/ha [2, 7] [%]	pest or weed control at 250 g/ha [2, 8] [%]	pest or weed control at 250 g/ha (Lolium perenne (LOLPE); [9]) [%]	pest or weed control at 250 g/ha (Lolium perenne (LOLPE); [10]) [%]
C#CCN(C)C(=O)CC1CC(=O)C(c2c(C)cc(/C=C/C)cc2C)C1=O (centres unmarked) [Compound B250]	90	50	100	50	100	90	100	80
CCc1cc(C)cc(C)c1C1C(=O)CC(CC(=O)NCc2cccc(Cl)c2)C1=O (centres unmarked) [Compound B251]	90	60	100	90	100	90	100	90
CCc1cc(C)cc(C)c1C1C(=O)CC(CC(=O)NCc2cccc(F)c2)C1=O (centres unmarked) [Compound B252]	90	70	100	100	100	100	100	100
CCc1cc(C)cc(C)c1C1C(=O)CC(CC(=O)NCc2ccc(OC)cc2)C1=O (centres unmarked) [Compound B253]	100	80	100	100	100	90	100	90
CCc1cc(C)cc(C)c1C1C(=O)CC(CC(=O)NCc2ccc(C#N)cc2)C1=O (centres unmarked) [Compound B254]	100	90	100	90	100	100	100	90
CCc1cc(C)cc(C)c1C1C(=O)CC(CC(=O)NC(C)C)C1=O (centres unmarked) [Compound B255]	100	80	100	100	100	100	100	100
C=CCNC(=O)CC1CC(=O)C(c2c(C)cc(C)cc2CC)C1=O (centres unmarked) [Compound B256]	100	100	100	100	100	100	100	100
CCc1cc(C)cc(C)c1C1C(=O)CC(CC(=O)NCC2CC2)C1=O (centres unmarked) [Compound B257]	100	90	100	100	100	100	100	100
CCc1cc(C)cc(C)c1C1C(=O)CC(CC(=O)N(C)CC)C1=O (centres unmarked) [Compound B258]	100	90	100	100	100	100	100	100
CCc1cc(C)cc(C)c1C1C(=O)CC(CC(=O)N(C)C(C)(C)C)C1=O (centres unmarked) [Compound B259]	100	90	100	100	100	100	100	100
